The results in this text go back to patent EP0525063B1, “Use of specific fatty acids in the manufacture of a medicament for their Iontophoresis delivery” (priority 1990, dated 1991).

How the values of data set [1] were obtained: (§1) Either pig skin or human cadaver skin was used. It was placed in the cell dermal side down.
(§2) The receptor solution completely filled the receptor compartment.
(§3) All skin was stored frozen.
(§4) Each experiment consisted of three phases totaling 66 hours. […]
(§5) The injection volume was 10 »l.

The source holds these as a separate data set.
Data set [2] in a line: Iontophoretic drug delivery through skin in vertical flow-through diffusion cell, HPLC of receptor solution (human skin). In kind it is in vitro ADME. Particulars: oxymorphone, 0 mg/ml oleic acid (control). On the procedure: as §1, §2, §3, §4, §5
Tests with enhancer may be compared to the control delivery rate with no oleic acid and using human skin. Tests summarized in Table 4 were done using oxymorphone in the donor compartment.

[3] abbreviates: delivery of HM-HCl 0.1M, enhancer 100 mg/ml (10.0%), E/W 60/40, current 1 mA.

Where “and” joins values, the source holds several entries; their conditions need not be identical. Identical values can stand only once. Counter-ions that a name gives are not always drawn. Like-named read-outs stand apart in the source and are kept apart here.

For `CCCCCCCC/C=C\CCCCCCCC(=O)O` [Oleic acid, cis-9-octadecenoic acid], the “Enhancement Factor” value in data set [1] (oleic acid 50 mg/ml (5%), solvent PG/E/W (30/45/20)) is given as 4.3; the “Enhancement Factor” value in data set [1] (oleic acid 50 mg/ml (5%), solvent PG/E/W (65/20/10)) turned out to be 2.5; the “Enhancement Factor” value (delivery of HM-HCl 0.1M, enhancer 10 mg/ml (1.0%), E/W 67/33, current 1 mA) turned out to be 4.3; the “Enhancement Factor” value (delivery of Oxy-HCl 0.1M, enhancer 5 mg/ml (0.5%), E/W 67/33, current 1 mA, ratio of steady state rates with and without enhancer) is 4.7; the “Enhancement Factor” value (delivery of oxymorphone-HCl, oleic acid 0.25 mg/ml (0.025%), E/W 48/52, 1 mA, pig skin) amounted to 0; the “Enhancement Factor” value (delivery of oxymorphone-HCl, oleic acid 0.50 mg/ml (0.050%), E/W 48/52, 1 mA, pig skin) is reported as 1.3. Also, the “Enhancement Factor” value by setting is: (delivery of oxymorphone-HCl, oleic acid 1.0 mg/ml (0.10%), E/W 52/48, 1 mA, pig skin) 1.9; (delivery of oxymorphone-HCl, oleic acid 2.0 mg/ml (0.20%), E/W 56/44, 1 mA, pig skin) 3.2; (delivery of oxymorphone-HCl, oleic acid 2.5 mg/ml (0.25%), E/W 56/44, 1 mA, pig skin, two identical tests on different days) 4.2 and 4.5; (delivery of oxymorphone-HCl, oleic acid 5.0 mg/ml (0.50%), E/W 67/33, 1 mA, pig skin) 4.7. Moreover, where the note is “Scheme B: 1% oleic acid + drug in passive phase I, phase II 0.1 M HM.HCl in DI W without enhancer, current on, pig skin”, the “steady state (phase II) delivery rate” value is given as 2163 ± 354 »g/hr. In addition, the “delivery by the end of phase I” value (Scheme B: passive phase I (18 h, current off), 1% oleic acid + 0.1 M HM.HCl in E/W 67/33, pig skin) is recorded as “approximately 1800 »g/hr”.
As to `CCCCCCCC(=O)O` [Caprylic acid, octanoic acid], in data set [1] (delivery of HM-HCl 0.1M, enhancer 100 mg/ml (10.0%), E/W 48/52, current 1 mA), the “Enhancement Factor” value is 3.6.
On to `CCCCCCCCCCCC(=O)O` [Lauric acid, dodecanoic acid], for which, in data set [1], the “Steady State Delivery Rate ± sd” value stood at 4838 ± 766 µg/h. In addition, the “Enhancement Factor” value in data set [1] (setting [3]) is 4.0.
For the compound `CN1CC[C@]23c4c5ccc(O)c4O[C@H]2C(=O)CC[C@@]3(O)[C@H]1C5` [Oxy-HCl, oxymorphone hydrochloride], the “Steady State Delivery Rate ± sd” value was found to be 27 ± 25 µg/h in data set [2] (current 0 mA); 228 ± 55 µg/h in data set [2] (current 0.25 mA); 542 ± 62 µg/h in data set [2] (current 0.50 mA); 910 ± 117 µg/h in data set [2] (current 0.75 mA); 1024 ± 276 µg/h in data set [2] (current 1.0 mA); 1202 ± 133 µg/h in data set [1] (Oxy-HCl 0.1M, no enhancer, E/W 67/33, current 1 mA). For the same compound, the “typical iontophoretic steady state delivery rate” value in data set [1] (current of 1 mA, without the addition of a fatty acid, human skin or pig skin) was “about 1200 »g/hr”.
In the case of `CCCCCCCCCC(=O)O` [Capric acid, decanoic acid], the “Enhancement Factor” value in data set [1] (setting [3]) amounted to 3.9.
